Data on one compound can be found in patent US20200216818A1 (priority 2013, published 2020).

Molecules are shown by their SMILES.

What all share (assay): MTS viability assay, ZD2767P prodrug, untransduced vs VV-CPG2-transduced cells
(Tetrazolium dyes change colour on reduction, which living cells bring about.)

The test system of one assay is WM226.4 cells. It counts as cell-based. As to conditions: WM226.4 cells transduced with VV-CPG2 at MOI 0.1 vs untransduced.
Another assay has as its system SW620 cells. Type of assay: cell-based. The note with it: SW620 cells transduced with VV-CPG2 at MOI 0.1 vs untransduced.
The next assay concerns FaDu cells. Type of assay: cell-based, human. As to conditions: FaDu cells transduced with VV-CPG2 at MOI 0.1 vs untransduced.

For the compound `O=C(O)CC[C@H](NC(=O)Oc1ccc(N(CCI)CCI)cc1)C(=O)O` [ZD2767P, N-(4-[bis(2-iodoethyl)amino]phenoxycarbonyl)-L-glutamic acid], the results for the “reduction of the EC50 of ZD2767P” value in the assay with WM226.4 cells, in the assay with SW620 cells and with FaDu cells were 114 fold, 119 fold and 103 fold, respectively.
